Columns and labels:
Assay type in all cases: in vivo
[1] = tested on: Wheat (Triticum aestivum); experiment: Post-emergence foliar spray of monocotyledons, wheat; details: foliar spray 2.8 kg/ha, 14 days, 0=no effect, 100=complete kill
Protocol: (§1) Seeds of the monocotyledon species listed below were sown in anodised aluminium pans, 19 cm long×9.5 cm wide×5.0 cm deep, containing John Innes I potting compost. They were then watered and placed in a controlled environment room (22° C.; 65-85% relative humidity; 14 hours per day artificial illumination at 17,000 lux). 14 days after sowing, the seedlings were given a foliar spray of the compound of Example 44, formulated as an aqueous suspension together with 2000 ppm of the wetting agent Lissapol NX. The dosage rate was adjusted to be 2.8 kg active ingredient in 450 liters per hectare. After a further 14 days in the controlled environment room, the plants were visually assessed for any growth regulatory or herbicidal effect. All differences from an untreated control were scored on a scale from 0-100 where 0 signifies no effect and 100 signifies complete kill.
(§2) The compounds listed below were tested according to the procedure of Example 66 but including rice (Oryza sativa) as an additional test species.

Barley (Hordeum vulgare) = experiment: Post-emergence foliar spray of monocotyledons, barley; details: foliar spray 2.8 kg/ha, 14 days, 0=no effect, 100=complete kill
Protocol: as §1, §2

[2] = tested on: Barnyardgrass (Echinochloa crus-galli); experiment: Post-emergence foliar spray of monocotyledons, barnyardgrass; details: foliar spray 2.8 kg/ha, 14 days, 0=no effect, 100=complete kill
Protocol: as §1, §2

rice (Oryza sativa) = experiment: Post-emergence foliar spray of monocotyledons, rice; details: foliar spray 2.8 kg/ha, 14 days, 0=no effect, 100=complete kill
Protocol: as §1, §2

Cotton [3] = experiment: Soil incorporation (I), cotton; details: 21 days, 0=no effect, 100=complete suppression
Description: (§3) Each of the compounds listed below was formulated as: […]
(§4) (I) an attaclay/sand dust and incorporated in John Innes I potting compost at a rate equivalent to 6.5 and 3.25 parts per million weight/volume of active ingredient to soil and placed in anodised aluminium pans, 19 cm long×9.5 cm wide×5.0 cm high. This is approximately equivalent to a surface application of 2.8 and 1.4 kg active ingredient per hectare cultivated to a depth of 5 cm. Seeds of the species listed below were sown in the treated soil, one species per pan, watered and placed in a controlled environment room (22° C.; 65-85% relative humidity and 14 hours artificial illumination at 17,000 lux) for 21 days.
(§5) The plants were then visually assessed for any growth regulatory or herbicidal effects. All differences from an untreated control were scored on a scale from 0-100, where 0 signifies no effect and 100 signifies complete suppression.
(§6) The results are shown in the following table where I stands for soil incorporation and II for surface spray.

Tomato [4] = experiment: Soil incorporation (I), tomato; details: 21 days, 0=no effect, 100=complete suppression
Description: as §3, §4, §5, §6

Wheat [5] = experiment: Soil incorporation (I), wheat; details: 21 days, 0=no effect, 100=complete suppression
Description: as §3, §4, §5, §6

Barley [6] = experiment: Soil incorporation (I), barley; details: 21 days, 0=no effect, 100=complete suppression
Description: as §3, §4, §5, §6

Barnyard Grass [7] = experiment: Soil incorporation (I), barnyard grass; details: 21 days, 0=no effect, 100=complete suppression
Description: as §3, §4, §5, §6

Rice [8] = experiment: Soil incorporation (I), rice; details: 21 days, 0=no effect, 100=complete suppression
Description: as §3, §4, §5, §6

Cotton [9] = experiment: Surface spray (II), cotton; details: 21 days, 0=no effect, 100=complete suppression
Description: as §3
(§7) (II) An aqueous suspension together with 1000 ppm of the wetting agent Lissapol NX. The surfaces of an additional set of pans with seeds already sown were then sprayed with 2.8 or 1.4 kg/ha in 450 liters/hectare, and the pans kept in the controlled environment room for 21 days.
as §5, §6

Tomato [10] = experiment: Surface spray (II), tomato; details: 21 days, 0=no effect, 100=complete suppression
Description: as §3, §7, §5, §6

Wheat [11] = experiment: Surface spray (II), wheat; details: 21 days, 0=no effect, 100=complete suppression
Description: as §3, §7, §5, §6

Barley [12] = experiment: Surface spray (II), barley; details: 21 days, 0=no effect, 100=complete suppression
Description: as §3, §7, §5, §6

Barnyard Grass [13] = experiment: Surface spray (II), barnyard grass; details: 21 days, 0=no effect, 100=complete suppression
Description: as §3, §7, §5, §6

Rice [14] = experiment: Surface spray (II), rice; details: 21 days, 0=no effect, 100=complete suppression
Description: as §3, §7, §5, §6

Carrot [15] = experiment: Soil incorporation (I), carrot; details: 21 days, 0=no effect, 100=complete suppression
Description: as §3, §4, §5, §6

Carrot [16] = experiment: Surface spray (II), carrot; details: 21 days, 0=no effect, 100=complete suppression
Description: as §3, §7, §5, §6

SMILES	growth regulatory or herbicidal effect score [1]	growth regulatory or herbicidal effect score (Barley (Hordeum vulgare))	growth regulatory or herbicidal effect score [2]	growth regulatory or herbicidal effect score (rice (Oryza sativa))	growth regulatory or herbicidal effect score (Cotton [3]; I soil incorporation 3.25 ppm)	growth regulatory or herbicidal effect score (Cotton [3]; I soil incorporation 6.5 ppm)	growth regulatory or herbicidal effect score (Tomato [4]; I soil incorporation 3.25 ppm)	growth regulatory or herbicidal effect score (Tomato [4]; I soil incorporation 6.5 ppm)	growth regulatory or herbicidal effect score (Wheat [5]; I soil incorporation 3.25 ppm)	growth regulatory or herbicidal effect score (Wheat [5]; I soil incorporation 6.5 ppm)	growth regulatory or herbicidal effect score (Barley [6]; I soil incorporation 3.25 ppm)	growth regulatory or herbicidal effect score (Barley [6]; I soil incorporation 6.5 ppm)	growth regulatory or herbicidal effect score (Barnyard Grass [7]; I soil incorporation 3.25 ppm)	growth regulatory or herbicidal effect score (Barnyard Grass [7]; I soil incorporation 6.5 ppm)	growth regulatory or herbicidal effect score (Rice [8]; I soil incorporation 3.25 ppm)	growth regulatory or herbicidal effect score (Rice [8]; I soil incorporation 6.5 ppm)	growth regulatory or herbicidal effect score (Cotton [9]; row 3.25 ppm (1.4 kg/ha))	growth regulatory or herbicidal effect score (Cotton [9]; row 6.5 ppm (2.8 kg/ha))	growth regulatory or herbicidal effect score (Tomato [10]; row 3.25 ppm (1.4 kg/ha))	growth regulatory or herbicidal effect score (Tomato [10]; row 6.5 ppm (2.8 kg/ha))	further results
Cc1ccc(N(CC(N)=S)S(C)(=O)=O)cc1Cl [Example 150]	0	0	80	0	0	0	0	0	0	0	0	0	60	60	0	0	0	0	0	0	growth regulatory or herbicidal effect score (Wheat [11]; row 3.25 ppm (1.4 kg/ha)): 0; growth regulatory or herbicidal effect score (Wheat [11]; row 6.5 ppm (2.8 kg/ha)): 0; growth regulatory or herbicidal effect score (Barley [12]; row 3.25 ppm (1.4 kg/ha)): 0; growth regulatory or herbicidal effect score (Barley [12]; row 6.5 ppm (2.8 kg/ha)): 0; growth regulatory or herbicidal effect score (Barnyard Grass [13]; row 3.25 ppm (1.4 kg/ha)): 50; growth regulatory or herbicidal effect score (Barnyard Grass [13]; row 6.5 ppm (2.8 kg/ha)): 70; growth regulatory or herbicidal effect score (Rice [14]; row 3.25 ppm (1.4 kg/ha)): 0; growth regulatory or herbicidal effect score (Rice [14]; row 6.5 ppm (2.8 kg/ha)): 0
Cc1ccc(N(CC#N)S(C)(=O)=O)cc1Cl [Example 131]	5	10	90	0	0	0	0	0	0	0	0	0	50	70	0	0	0	0	0	0	growth regulatory or herbicidal effect score (Carrot [15]; I soil incorporation 3.25 ppm): 0; growth regulatory or herbicidal effect score (Carrot [15]; I soil incorporation 6.5 ppm): 0; growth regulatory or herbicidal effect score (Wheat [11]; row 3.25 ppm (1.4 kg/ha)): 0; growth regulatory or herbicidal effect score (Wheat [11]; row 6.5 ppm (2.8 kg/ha)): 0; growth regulatory or herbicidal effect score (Barley [12]; row 3.25 ppm (1.4 kg/ha)): 0; growth regulatory or herbicidal effect score (Barley [12]; row 6.5 ppm (2.8 kg/ha)): 0; growth regulatory or herbicidal effect score (Barnyard Grass [13]; row 3.25 ppm (1.4 kg/ha)): 60; growth regulatory or herbicidal effect score (Barnyard Grass [13]; row 6.5 ppm (2.8 kg/ha)): 80; growth regulatory or herbicidal effect score (Rice [14]; row 3.25 ppm (1.4 kg/ha)): 0; growth regulatory or herbicidal effect score (Rice [14]; row 6.5 ppm (2.8 kg/ha)): 0; growth regulatory or herbicidal effect score (Carrot [16]; row 3.25 ppm (1.4 kg/ha)): 0; growth regulatory or herbicidal effect score (Carrot [16]; row 6.5 ppm (2.8 kg/ha)): 0
CS(=O)(=O)N(CC(N)=S)c1ccc(Cl)c(Cl)c1 [Example 85, N-(thiocarbamoylmethyl)-3,4-dichloromethanesulphonanilide]	0	0	90	0	0	0	0	0	0	0	0	0	90	90	0	0	0	0	0	0	growth regulatory or herbicidal effect score (Carrot [15]; I soil incorporation 3.25 ppm): 0; growth regulatory or herbicidal effect score (Carrot [15]; I soil incorporation 6.5 ppm): 0; growth regulatory or herbicidal effect score (Wheat [11]; row 3.25 ppm (1.4 kg/ha)): 0; growth regulatory or herbicidal effect score (Wheat [11]; row 6.5 ppm (2.8 kg/ha)): 0; growth regulatory or herbicidal effect score (Barley [12]; row 3.25 ppm (1.4 kg/ha)): 0; growth regulatory or herbicidal effect score (Barley [12]; row 6.5 ppm (2.8 kg/ha)): 0; growth regulatory or herbicidal effect score (Barnyard Grass [13]; row 3.25 ppm (1.4 kg/ha)): 90; growth regulatory or herbicidal effect score (Barnyard Grass [13]; row 6.5 ppm (2.8 kg/ha)): 100; growth regulatory or herbicidal effect score (Rice [14]; row 3.25 ppm (1.4 kg/ha)): 0; growth regulatory or herbicidal effect score (Rice [14]; row 6.5 ppm (2.8 kg/ha)): 0; growth regulatory or herbicidal effect score (Carrot [16]; row 3.25 ppm (1.4 kg/ha)): 0; growth regulatory or herbicidal effect score (Carrot [16]; row 6.5 ppm (2.8 kg/ha)): 0
CCS(=O)(=O)N(CC(N)=S)c1ccc(Cl)c(Cl)c1 [Example 156]	0	0	90	0	0	0	0	0	0	0	0	0	70	90	0	0	0	0	0	0	growth regulatory or herbicidal effect score (Wheat [11]; row 3.25 ppm (1.4 kg/ha)): 0; growth regulatory or herbicidal effect score (Wheat [11]; row 6.5 ppm (2.8 kg/ha)): 0; growth regulatory or herbicidal effect score (Barley [12]; row 3.25 ppm (1.4 kg/ha)): 0; growth regulatory or herbicidal effect score (Barley [12]; row 6.5 ppm (2.8 kg/ha)): 0; growth regulatory or herbicidal effect score (Barnyard Grass [13]; row 3.25 ppm (1.4 kg/ha)): 80; growth regulatory or herbicidal effect score (Barnyard Grass [13]; row 6.5 ppm (2.8 kg/ha)): 100; growth regulatory or herbicidal effect score (Rice [14]; row 3.25 ppm (1.4 kg/ha)): 0; growth regulatory or herbicidal effect score (Rice [14]; row 6.5 ppm (2.8 kg/ha)): 0

From patent US4309559A, “Sulphonamides useful as pesticides” (FBC Limited, priority 1977, dated 1982)
